# Assay results taken from PubChem BioAssay (NCI).
#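 Following 48 hours of exposure in 96-well plates, responses at five concentrations were used to interpolate endpoints linearly. GI50 = concentration required for 50% inhibition of growth. TGI denotes the concentration required for complete inhibition of growth.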
# Legend:
# Experiment in all cases: NCI anticancer screen, dose series, 48 h
# ACHN renal = system: ACHN renal
# SK-MEL-5 melanoma = system: SK-MEL-5 melanoma
# K-562 leukemia = system: K-562 leukemia
# HCT-15 colon = system: HCT-15 colon
# SNB-19 CNS = system: SNB-19 CNS
# SK-OV-3 ovarian = system: SK-OV-3 ovarian
# T-47D breast = system: T-47D breast
# 786-0 renal = system: 786-0 renal
# NCI-H522 lung = system: NCI-H522 lung
# BT-549 breast = system: BT-549 breast
# SK-MEL-2 melanoma = system: SK-MEL-2 melanoma
# LOX IMVI melanoma = system: LOX IMVI melanoma
# MDA-MB-435 = system: MDA-MB-435
# NCI/ADR-RES ovarian = system: NCI/ADR-RES ovarian
# SW-620 colon = system: SW-620 colon
# SR leukemia = system: SR leukemia
# HS 578T breast = system: HS 578T breast
# CCRF-CEM leukemia = system: CCRF-CEM leukemia
# OVCAR-4 ovarian = system: OVCAR-4 ovarian
# A498 renal = system: A498 renal
# OVCAR-5 ovarian = system: OVCAR-5 ovarian
# A549 NSCLC = system: A549 NSCLC
# HL-60(TB) leukemia = system: HL-60(TB) leukemia
# IGROV1 ovarian = system: IGROV1 ovarian
# NCI-H226 lung = system: NCI-H226 lung
# MCF7 breast = system: MCF7 breast
# UACC-257 melanoma = system: UACC-257 melanoma
# MOLT-4 leukemia = system: MOLT-4 leukemia
# RPMI-8226 leukemia = system: RPMI-8226 leukemia
structure (smiles),measurement,setting,value
CS(=O)(=O)c1nccc(-c2c(-c3ccc(F)c(OCCc4ccc(F)cc4)c3)nc3sccn23)n1,GI50,ACHN renal,2.74 µM
same,TGI,ACHN renal,7.33 µM
same,GI50,SK-MEL-5 melanoma,16.5 µM
same,TGI,SK-MEL-5 melanoma,30.8 µM
same,GI50,K-562 leukemia,15 µM
same,TGI,K-562 leukemia,53.8 µM
same,GI50,HCT-15 colon,12.5 µM
same,TGI,HCT-15 colon,27.8 µM
same,GI50,SNB-19 CNS,15.2 µM
same,TGI,SNB-19 CNS,33.9 µM
same,GI50,SK-OV-3 ovarian,13.5 µM
same,TGI,SK-OV-3 ovarian,26.5 µM
same,GI50,T-47D breast,2.7 µM
same,TGI,T-47D breast,7.57 µM
same,GI50,786-0 renal,14.9 µM
same,TGI,786-0 renal,30 µM
same,GI50,NCI-H522 lung,11.7 µM
same,TGI,NCI-H522 lung,28.1 µM
same,GI50,BT-549 breast,14 µM
same,TGI,BT-549 breast,27.6 µM
same,GI50,SK-MEL-2 melanoma,15.7 µM
same,TGI,SK-MEL-2 melanoma,30.7 µM
same,GI50,LOX IMVI melanoma,13 µM
same,TGI,LOX IMVI melanoma,27.6 µM
same,GI50,MDA-MB-435,15.9 µM
same,TGI,MDA-MB-435,29.3 µM
same,GI50,NCI/ADR-RES ovarian,17.4 µM
same,TGI,NCI/ADR-RES ovarian,39 µM
same,GI50,SW-620 colon,15.2 µM
same,TGI,SW-620 colon,30.6 µM
same,GI50,SR leukemia,12.3 µM
same,TGI,SR leukemia,36.9 µM
same,GI50,HS 578T breast,12.5 µM
same,TGI,HS 578T breast,43.8 µM
same,GI50,CCRF-CEM leukemia,14.2 µM
same,TGI,CCRF-CEM leukemia,33.2 µM
same,GI50,OVCAR-4 ovarian,14.9 µM
same,TGI,OVCAR-4 ovarian,30.4 µM
same,GI50,A498 renal,9.97 µM
same,TGI,A498 renal,21.5 µM
same,GI50,OVCAR-5 ovarian,15.5 µM
same,TGI,OVCAR-5 ovarian,30.4 µM
same,GI50,A549 NSCLC,16.1 µM
same,TGI,A549 NSCLC,30.5 µM
same,GI50,HL-60(TB) leukemia,3.23 µM
same,TGI,HL-60(TB) leukemia,9.31 µM
same,GI50,IGROV1 ovarian,5.9 µM
same,TGI,IGROV1 ovarian,24.6 µM
same,GI50,NCI-H226 lung,14.5 µM
same,TGI,NCI-H226 lung,35 µM
same,GI50,MCF7 breast,1.85 µM
same,TGI,MCF7 breast,4.31 µM
same,GI50,UACC-257 melanoma,12.3 µM
same,TGI,UACC-257 melanoma,25.4 µM
same,GI50,MOLT-4 leukemia,14.3 µM
same,TGI,MOLT-4 leukemia,34.5 µM
same,GI50,RPMI-8226 leukemia,4.34 µM
